ChEMBL document CHEMBL1143525, “A fluorescent inositol phosphate glycan stimulates lipogenesis in rat adipocytes by extracellular activation alone” (Bioorg Med Chem Lett, 2005)
pKd: −log10 of the molar value.

Key:
Rattus norvegicus [1] = species on record: Rattus norvegicus; experiment: Value of Kd measured against rat Adipocytes; assay type: functional, organism-based
Rattus norvegicus [2] = species on record: Rattus norvegicus; experiment: Maximal activity to stimulate lipogenisis in rat adipocytes compared to the maximal effect of insulin; assay type: functional

SMILES | pKd (Rattus norvegicus [1]) | Activity (Rattus norvegicus [2]) [%]
NC1[C@H](O[C@H]2C(O)C(O)[C@@H](O)C3OP(=O)(O)O[C@H]32)OC(CO)[C@@H](O)[C@@H]1O (some centres undefined) | 4.80 | 24
Nc1c(S(=O)(=O)[O-])cc2c3c(cc(S(=O)(=O)[O-])cc13)C(=O)N(CCNC(=O)CSC[C@@H]1O[C@@H](O[C@H]3[C@H](O)[C@H](O)[C@@H](O)[C@@H]4OP(=O)(O)O[C@@H]34)[C@@H](N)[C@@H](O)[C@@H]1O)C2=O.[K+].[K+] | 4.92 | 47
